Test results taken from patent EP3838286B1, “ANTIMICROBIAL PEPTIDE FROM POLISTES GALLICUS VENOM AND ITS ANALOGS” (Latoxan, priority 2019, dated 2021).
Several values for one entry are separate records, joined by “and”; a condition that tells them apart may be missing. Equal entries are not always repeated. Ends that are not written are not given here.

Assays:
human erythrocytes = assay: Hemolytic activity assay; assay type: cell-based
Description: The hemolytic activity of each peptide was determined by the leakage of hemoglobin from human erythrocytes (obtained from Divbioscience, NL) as previously described (Oyama et al., 2017 Biofilms Microbiomes, Dec 1;3:33).
Briefly, human erythrocytes were washed 3 times with phosphate buffer saline (PBS) and concentrated using centrifugation at 800 g for 5 min. Human erythrocytes were then resuspended in PBS at a final concentration of 8 %. 100 µl of human erythrocytes were then added per well of sterile 96 well microplate already containing 15 µl of serially diluted antimicrobials (1:2 in distilled water). After 1 h at 37°C, the microplate was centrifuged at 800 g for 5 min. 100 µl were then carefully collected and transferred to a new 96 well microplate and OD was measured at 405 nm. Hemolysis caused by peptides was expressed as percentage of hemolysis; Triton-X100 at 0.1 % (v:v) was used as positive control and gave 100 % hemolysis. Hemolysis rate was determined as below: Hemolysis rate (%) = (A−A2)/(A1−A2) × 100% [formula] where A is the absorbance of indicator mixtures with different factors, A1 and A2 are the positive control, and the negative control, respectively.

E. coli [1] = system: E. coli
P. aeruginosa [2] = system: P. aeruginosa
[3] = system: Gram-positive and Gram-negative bacteria
[4] = system: HeLa TLR4/IL-8 Renilla Luciferase Reporter cell line; assay: Anti-inflammatory activity (LPS stimulation, luciferase reporter); assay type: cell-based; details: 10 ng/mL LPS from P. aeruginosa; 6 h incubation; read-out: IC50 (inhibition of LPS effect)
Description: Anti-inflammatory activity of the peptides was determined using eLUCidate™ HeLa TLR4/IL-8 Renilla Luciferase Reporter cell line (obtained from ASMBIO). eLUCidate™ HeLa cells were cultivated according to manufacturer instructions. eLUCidate™ HeLa cells were seeded in 96 wells plates at an initial 50,000 cells/well. The next day, media from wells was empty and cells were exposed to LPS from P. aeruginosa (from Sigma Aldrich) diluted in culture media at a final concentration of 10 ng/ml in the presence of increasing concentrations of peptides. Polymyxin B (PMB, from Sigma Aldrich) was used as positive control. After 6 h incubation at 37°C in an incubator containing 5% CO2, wells were empty and cells were lysed in 70 µl of PBS containing 1% Triton X100 for 15 min on ice. 50 µl of cell lysats were then transferred to white 96 wells plates containing 50 µl of Renilla Luciferase substrate (Genofax A from Yelen, Marseille France). Luminescence intensities were measured using microplate reader (Synergy Mx, Biotek). The luminescence values were normalized by the controls (buffer treated cells) and expressed as percent of LPS stimulation. […]

E. coli [5] = details: Konno et al., Peptides 2006; cited from earlier work
P. aeruginosa [6] = details: Konno et al., Peptides 2006; cited from earlier work

For “ILKAIKKLLKN-NH2 [LTX-gallicune-1 (I1N11)]”, the hemolytic activity (human erythrocytes; at 1mM) was “not hemolytic”, the “hemotoxicity: no toxicity towards red blood cells up to” value (human erythrocytes; highest concentration tested) was > 10 mM and the “times less toxic (hemotoxic) than Gallicus-CP” value (human erythrocytes; human erythrocytes, Fig 3) was 1000 times. The “MIC against S. aureus” value (S. aureus) was ≥ 100 µM, the “MIC (µM) E. coli” value (E. coli [1]) was 6.25 µM and the “MIC against E. coli” value (E. coli [1]) was > 50 µM. For the same substance, the “MIC against B. subtilis” value (B. subtilis) was 6.25 µM, the “MIC (µM) A.baumani” value (A.baumani) was 100 µM and the “MIC against Candida albicans” value (Candida albicans) was 50 µM.

For ILSAILGLLKNL-NH2 [Gallicus-CP(I1L12)], the “50% MHC (concentration inducing 50% hemolysis of human erythrocytes)” value (human erythrocytes) was 10 µM, the “MIC (µM) P. aeruginosa” value (P. aeruginosa [2]) was 100 µM and the “minimal inhibitory concentration (MIC)” value [3] was 1.56 to 100 µM.

With Polymyxin B [PMB] the IC50 [4] was 57 nM and 57.6 nM.

In the case of eumenitin, the “effective concentration against E. coli” value (E. coli [5]) is given as 6 µM and the “effective concentration against P. aeruginosa” value (P. aeruginosa [6]) is given as 30 µM.
